Measurements published in a melting point compilation (Tetko et al.; mined from patent text by program, amines drawn as free bases though some values may be those of a salt).

Compound | melting point
O=C1CCN(C(=O)c2ccc3nonc3c2)CC1 | 136 to 139 °C
CC(C)(C)[Si](Oc1ccc2[nH]c(=O)oc(=O)c2c1)(c1ccccc1)c1ccccc1 | 185 °C
O=C(Nc1ccc(NC(=S)NCc2ccccc2)cc1)c1ccc(NC(=S)NCc2ccccc2)cc1 | 207 °C
CC(C)Oc1nc(N)nc2c1ncn2CCC(CO)CO | 112 to 114 °C
COc1ccc(C(O)CN2CCN(C(c3ccccc3)c3ccccc3)CC2)c(OC)c1OC (stereo not given) | 128 °C
Cn1ncc(/C=C/C(=O)Nc2ccc(Cc3nc4ccccc4o3)cc2)c1-c1ccc(F)cc1 | 195 to 196 °C
COc1cccc(-n2c(-c3ccccc3)cc(=O)c(C)c2-c2ccccc2)c1 | 183 to 185 °C
CCCCCCCCCCOc1cnc(-c2ccccc2C#CCC(C)O)nc1 (single isomer, unassigned; (-)) | 71 to 72 °C
CC(=O)CN1CCNC1=Nc1c(Cl)cccc1Cl | 84 to 86 °C
CC(=C1SC(=O)NC1=O)c1ccc(NCCOc2c(-c3ccc(F)cc3)n(C)c3ccccc3c2=O)cc1 | 130 to 132 °C
COc1ccc(/C=C/c2ccc3c(Nc4cc(OC)c(Cl)cc4Cl)c(C#N)cnc3c2)cc1 | 216 to 220 °C
NC(=O)C1C=Cc2cc(Cl)ccc2N1C(=O)c1ccccc1 (stereo not given) | 230 to 234 °C
C=Cc1ccc(Cc2ccc(C=C)cc2)cc1 | 30 to 33 °C
Cc1ccc(S(=O)(=O)OCC2Cc3cccc(O)c3O2)cc1 (stereo not given) | 122 to 125 °C
CC(C)(C)OC(=O)C=C(O)c1cccnc1Oc1ccc(F)cc1 | 87 to 89 °C
CSc1c(OCC(=O)O)ccc2c3ccccc3n(Cc3ccccc3)c12 | 188 to 189 °C
O=C(/C=C1/c2ccccc2N(C(=O)c2ccc(NC(=O)c3ccccc3-c3ccccc3)cc2)CCC1(F)F)NCc1ccccc1 | 189 to 192 °C
CCCCCCCCCOP(=O)(CNC(=O)Nc1c(C(C)C)cccc1C(C)C)OCC (stereo not given) | 66 to 70 °C
CN1C(C(=O)Nc2ccccc2)=C(O)c2sc3ccccc3c2S1(=O)=O | 261 to 263 °C
Cc1cc(C)c(C[C@@H](C(=O)[C@H](Cc2c(C)cc(C)cc2C)N2C(=O)c3ccccc3C2=O)N2C(=O)c3ccccc3C2=O)c(C)c1 | 142 to 143 °C
CCCCOc1ccc(C(=O)O)c(OC)c1 | 94 to 96 °C
CN[C@@]1(C)CCN(c2c(-c3ccccc3)c(C)c(C#N)c3nc(C(=O)N(C)C)oc23)C1 | 172 to 174 °C
CN1CCN(CC/C=C/c2cc3c(Nc4ccc5[nH]ccc5c4)c(C#N)cnc3s2)CC1 | 220 °C
CCOC(=O)c1cnc2cc(I)ccc2n1 | 160 to 162 °C
Cc1ccc(S(=O)(=O)n2c(-c3cn(C)c4ccc(C=O)cc34)cc3cccnc32)cc1 | 188 to 189 °C

Compound | melting point
O=C(CN1CCN(c2ccc(C(=O)O)cc2)CC1)Nc1ccc(Cl)cc1 | 263 to 265 °C
Cc1c(C#N)c(C(F)(F)F)nn1-c1c(Cl)cc(C(F)(F)F)cc1Cl | 90 to 92 °C
CSc1ncc2c(n1)C(C)CNN(C)C2=O (stereo not given) | 153 to 155 °C
CC(=O)c1cnc(Cl)c(Cl)c1 | 80 °C
CCOCCNC(=O)c1c(Cl)cccc1[Si](C)(C)C | 71 to 73 °C
O=C(OCCl)c1c(Cl)cccc1Cl | 70 to 72 °C
O=C(CCl)Nc1ccc2c(c1NC(=O)CCl)C(=O)c1ccccc1C2=O | 254 to 255 °C
CC1=NC(c2ccccc2)c2c(cc[nH]c2=O)N1 (stereo not given) | 263 to 264 °C
COc1cc2ncnc(N3CCN(C(=O)Nc4ccc5[nH]ccc5c4)CC3)c2cc1OC | 209 to 210 °C
Cc1cc(Nc2cc(C(C)(C)C)c(O)c(C(C)(C)C)c2)n2nccc2n1 | 251 to 253 °C
CC(C)(C)OC(=O)Nc1cc(OCc2ccccc2)c2ccccc2c1I | 111 to 112 °C
COC(=O)C1CCN2C(=O)C(=O)c3cc(Cl)cc1c32 (stereo not given) | 132 to 133 °C
COCC(C)Oc1ccc(CSc2cnn(C(C)(C)C)c(=O)c2Cl)cc1 (stereo not given) | 51 to 52 °C
CCOP(=O)(OCC)Oc1c(Br)c(C)nc(C)c1-c1ccc(Oc2ccc(OC(F)(F)F)cc2)cc1 | 80 to 81 °C
C=C(C)COc1ccc(C)c2c1C(=O)CC2 | 74.2 to 75.2 °C
COc1ccc(CSc2nc3cnccc3[nH]2)cc1C | 158 to 159 °C
C=Cc1cn(-c2c(Cl)cc(C(F)(F)F)cc2Cl)nc1C | 68.1 to 68.7 °C
COc1ccc(NC(=O)c2cc(N)ccc2NC(=O)c2ccc(C(C)(C)C)cc2)cc1 | 212 to 214 °C
Cc1oncc1C(=O)N1CCC[C@H](c2nc(-c3cc4ccccc4[nH]3)no2)C1 | 163 to 164 °C
CCc1cc2c(O)c(C#N)c(=O)oc2cc1C | 224 to 226 °C
CCCCCCCCCCCCCCCc1ccc2c(c1)C1(O)C(=O)c3ccccc3C1(O)O2 (stereo not given) | 105 to 110 °C
O=C1c2ccccc2C(=O)c2sc(-c3ccncc3)nc21 | > 260 °C
C=CCN1CCN(C2=NC3(C=CC(=O)C=C3)C(c3ccccc3)=C2)CC1 | 171 °C
COC(=O)c1cc(N)c(C#N)s1 | 187 to 189 °C
CCOC(OCC)P(=O)(O)CCCN(C)Cc1ccc(Cl)cc1 | 170 °C
